Each block holds one compound with its values, some of them ahead of it.
Molecular target: T1, CXCR3 (Homo sapiens, UniProt P49682)
T1 construct: host or cells: CHO-K1 (cAMP Hunter CHOK1 CXCR3 Gi cell line)
T1 sequence (P49682 1-368): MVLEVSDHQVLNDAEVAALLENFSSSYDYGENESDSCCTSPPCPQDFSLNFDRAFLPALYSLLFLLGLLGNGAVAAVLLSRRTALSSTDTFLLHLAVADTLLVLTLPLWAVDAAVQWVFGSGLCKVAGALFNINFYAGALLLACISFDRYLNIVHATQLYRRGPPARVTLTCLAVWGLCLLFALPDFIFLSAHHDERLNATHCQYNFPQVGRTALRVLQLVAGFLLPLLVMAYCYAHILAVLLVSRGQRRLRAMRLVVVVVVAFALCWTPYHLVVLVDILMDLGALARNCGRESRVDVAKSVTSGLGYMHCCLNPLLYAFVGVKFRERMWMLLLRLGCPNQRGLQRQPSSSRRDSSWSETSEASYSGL
Test: CXCR3 cAMP agonist assay (cAMP Hunter CHOK1 CXCR3 Gi cell line, forskolin-stimulated, HitHunter cAMP detection)
Assay type: cell-based
Details: cAMP Hunter CHOK1 CXCR3 Gi cells, 20 μM forskolin, 30 minutes; read-out: Activity (CXCR3 cAMP agonist assay compound EC50)
Procedure, shortened: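 CHOK1 cells expressing human CXCR3 with Gi coupling, 50,000/well in suspension in HBSS/10 mM HEPES/0.1% BSA pH 7.4, were co-treated with 20 μM forskolin and compound (12-point, 0-10 μM, 1% DMSO) for 30 min. cAMP was read by enzyme-complementation luminescence; CXCL11 dose response set maximum efficacy.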

EC50: < 50 nM
SMILES: Cc1cc(NC(=O)[C@H](CCN)NC(=O)[C@@H]2Cc3ccccc3CN2C(=O)CCC(=O)N2CCC[C@H]2CF)ccc1Cl [Compound 12-139]

EC50: < 50 nM
SMILES: Cc1cc(NC(=O)[C@H](CCN)NC(=O)[C@@H]2Cc3ccccc3CN2C(=O)CCC(=O)N2CCN(C)c3ccccc32)ccc1Cl [Compound 12-140]

EC50: < 50 nM
SMILES: Cc1cc(NC(=O)[C@H](CCN)NC(=O)[C@@H]2Cc3ccccc3CN2C(=O)CCC(=O)N2CCC[C@H]2C(F)F)ccc1Cl [Compound 12-143]

EC50: < 50 nM
SMILES: Cc1cc(NC(=O)[C@H](CCN)NC(=O)[C@@H]2Cc3ccccc3CN2C(=O)CCC(=O)N2CCC[C@@H]2CF)ccc1Cl [Compound 12-144]

EC50: < 50 nM
SMILES: Cc1cc(NC(=O)[C@H](CCN)NC(=O)[C@@H]2Cc3ccccc3CN2C(=O)CCC(=O)N2CCN(C)C2)ccc1Cl [Compound 12-145]

EC50: 250 to 500 nM
SMILES: NCC[C@H](NC(=O)[C@@H]1Cc2ccccc2CN1C(=O)CCC(=O)N1CCC[C@@H]1c1ccccc1)C(=O)Nc1ccc(Cl)c(Cl)c1F [Compound 12-148]

EC50: < 50 nM
SMILES: NCC[C@H](NC(=O)[C@@H]1Cc2ccccc2CN1C(=O)CCC(=O)N1CCC[C@H]1c1ccccc1)C(=O)Nc1ccc(Cl)c(Cl)c1F [Compound 12-149]

EC50: < 50 nM
SMILES: CC[C@@H]1CN(C(=O)CCC(=O)N2Cc3ccccc3C[C@H]2C(=O)N[C@@H](CCN)C(=O)Nc2ccc(Cl)c(C)c2)CCN1C [Compound 12-151]

EC50: < 50 nM
SMILES: CC[C@H]1CCN(C(=O)CCC(=O)N2Cc3ccccc3C[C@H]2C(=O)N[C@@H](CCN)C(=O)Nc2ccc(Cl)c(C)c2)C1 [Compound 12-153]

EC50: < 50 nM
SMILES: Cc1cc(NC(=O)[C@H](CCN)NC(=O)[C@@H]2Cc3ccccc3CN2C(=O)CCC(=O)N2CCCC23CCC3)ncc1Cl [Compound 12-156]

EC50: < 50 nM
SMILES: Cc1cc(NC(=O)[C@H](CCN)NC(=O)[C@@H]2Cc3ccccc3CN2C(=O)CCC(=O)N2CCCC3(CCC3)C2)ncc1Cl [Compound 12-158]

EC50: < 50 nM
SMILES: O=C(CCC(=O)N1Cc2ccccc2C[C@H]1C(=O)NC1(C(=O)Nc2ccc3c(c2)CCC3)CCNCC1)c1ccccc1 [Compound 13-1]

EC50: 50 to 250 nM
SMILES: Cc1cccc(NC(=O)C2(NC(=O)[C@@H]3Cc4ccccc4CN3C(=O)CCC(=O)c3ccccc3)CCNCC2)c1F [Compound 13-3]

EC50: 250 to 500 nM
SMILES: Cc1cccc(F)c1NC(=O)[C@H](CCN)NC(=O)[C@@H]1Cc2ccccc2CN1C(=O)CCC(=O)c1ccccc1 [Compound 14-5]

EC50: < 50 nM
SMILES: Cc1cccc(NC(=O)[C@H](CCN)NC(=O)[C@@H]2Cc3ccccc3CN2C(=O)CCC(=O)c2ccccc2)c1Cl [Compound 14-6]

EC50: < 50 nM
SMILES: NCC[C@H](NC(=O)[C@@H]1Cc2ccccc2CN1C(=O)CCC(=O)c1ccccc1)C(=O)Nc1cccc(Cl)c1Cl [Compound 14-8]

EC50: > 500 nM
SMILES: Cc1cccc(Cl)c1NC(=O)[C@H](CCN)NC(=O)[C@@H]1Cc2ccccc2CN1C(=O)CCC(=O)c1ccccc1 [Compound 14-10]

EC50: 50 to 250 nM
SMILES: NCC[C@H](NC(=O)[C@@H]1Cc2ccccc2CN1C(=O)CCC(=O)c1ccccc1)C(=O)Nc1cc(Cl)ccc1Cl [Compound 14-11]

EC50: 250 to 500 nM
SMILES: NCC[C@H](NC(=O)[C@@H]1Cc2ccccc2CN1C(=O)CCC(=O)c1ccccc1)C(=O)Nc1ccccc1C(F)(F)F [Compound 14-15]

EC50: 250 to 500 nM
SMILES: NCC[C@H](NC(=O)[C@@H]1Cc2ccccc2CN1C(=O)CCC(=O)c1ccccc1)C(=O)Nc1cccc(Cl)c1C(F)(F)F [Compound 14-16]

EC50: 50 to 250 nM
SMILES: Cc1cccc(NC(=O)[C@H](CCN)NC(=O)[C@@H]2Cc3ccccc3CN2C(=O)CCC(=O)c2ccccc2)c1C#N [Compound 14-19]

EC50: 50 to 250 nM
SMILES: CCc1c(Cl)ccc(NC(=O)[C@H](CCN)NC(=O)[C@@H]2Cc3ccccc3CN2C(=O)CCC(=O)c2ccccc2)c1Cl [Compound 14-21]

EC50: 50 to 250 nM
SMILES: NCC[C@H](NC(=O)[C@@H]1Cc2ccccc2CN1C(=O)CCC(=O)c1ccccc1)C(=O)Nc1ccc(Cl)cc1OC(F)(F)F [Compound 14-23]

The remaining lines, values behind:

SMILES: O=C(NC1(C(=O)Nc2ccc(Cl)c(Cl)c2F)CCNCC1)[C@@H]1Cc2ccccc2CN1C(=O)CCC(=O)N1CCCC12CCC2 [Compound 12-136]
EC50: < 50 nM

SMILES: CN(CC(C)(C)C)C(=O)CCC(=O)N1Cc2ccccc2C[C@H]1C(=O)NC1(C(=O)Nc2ccc(Cl)c(Cl)c2F)CCNCC1 [Compound 12-137]
EC50: 50 to 250 nM

SMILES: Cc1cc(NC(=O)[C@H](CCN)NC(=O)[C@@H]2Cc3ccccc3CN2C(=O)CCC(=O)N2[C@H](C)CCC[C@H]2C)ccc1Cl [Compound 12-141]
EC50: < 50 nM

SMILES: Cc1cc(NC(=O)[C@H](CCN)NC(=O)[C@@H]2Cc3ccccc3CN2C(=O)CCC(=O)N2[C@@H](C)CCC[C@@H]2C)ccc1Cl [Compound 12-142]
EC50: < 50 nM

SMILES: Cc1cc(NC(=O)[C@H](CCN)NC(=O)[C@@H]2Cc3ccccc3CN2C(=O)CCC(=O)N2CC3CCC2CN3C)ccc1Cl (stereo partly shown) [Compound 12-146]
EC50: > 500 nM

SMILES: Cc1cc(NC(=O)[C@H](CCN)NC(=O)[C@@H]2Cc3ccccc3CN2C(=O)CCC(=O)N2CCC[C@H]2c2ccccc2)ccc1Cl [Compound 12-147]
EC50: < 50 nM

SMILES: CC[C@H]1CN(C(=O)CCC(=O)N2Cc3ccccc3C[C@H]2C(=O)N[C@@H](CCN)C(=O)Nc2ccc(Cl)c(C)c2)CCN1C [Compound 12-150]
EC50: < 50 nM

SMILES: CC[C@@H]1CCN(C(=O)CCC(=O)N2Cc3ccccc3C[C@H]2C(=O)N[C@@H](CCN)C(=O)Nc2ccc(Cl)c(C)c2)C1 [Compound 12-154]
EC50: < 50 nM

SMILES: Cc1cc(NC(=O)[C@H](CCN)NC(=O)[C@@H]2Cc3ccccc3CN2C(=O)CCC(=O)N2CCCC(C)(C)C2)ncc1Cl [Compound 12-155]
EC50: < 50 nM

SMILES: Cc1cc(NC(=O)[C@H](CCN)NC(=O)[C@@H]2Cc3ccccc3CN2C(=O)CCC(=O)N2CCCC2(C)C)ncc1Cl [Compound 12-157]
EC50: < 50 nM

SMILES: Cc1cc(NC(=O)[C@H](CCN)NC(=O)[C@@H]2Cc3ccccc3CN2C(=O)CCC(=O)N2CCC(C)(C)CC2)ncc1Cl [Compound 12-159]
EC50: < 50 nM

SMILES: Cc1ccc(NC(=O)C2(NC(=O)[C@@H]3Cc4ccccc4CN3C(=O)CCC(=O)c3ccccc3)CCNCC2)c(F)c1 [Compound 13-2]
EC50: 50 to 250 nM

SMILES: COc1cc(Cl)ccc1NC(=O)[C@H](CCN)NC(=O)[C@@H]1Cc2ccccc2CN1C(=O)CCC(=O)c1ccccc1 [Compound 13-4]
EC50: 50 to 250 nM

SMILES: CCc1cccc(NC(=O)[C@H](CCN)NC(=O)[C@@H]2Cc3ccccc3CN2C(=O)CCC(=O)c2ccccc2)c1OC [Compound 13-5]
EC50: 50 to 250 nM

SMILES: COc1cc(F)ccc1NC(=O)[C@H](CCN)NC(=O)[C@@H]1Cc2ccccc2CN1C(=O)CCC(=O)c1ccccc1 [Compound 13-6]
EC50: > 500 nM

SMILES: Cc1ccc(NC(=O)[C@H](CCN)NC(=O)[C@@H]2Cc3ccccc3CN2C(=O)CCC(=O)c2ccccc2)c(OC(F)(F)F)c1 [Compound 13-7]
EC50: 50 to 250 nM

SMILES: NCC[C@H](NC(=O)[C@@H]1Cc2ccccc2CN1C(=O)CCC(=O)c1ccccc1)C(=O)Nc1cc(F)ccc1Cl [Compound 14-1, (S)—N—((S)-4-amino-1-((2-chloro-5-fluorophenyl)amino)-1-oxobutan-2-yl)-2-(4-oxo-4-phenylbutanoyl)-1,2,3,4-tetrahydroisoquinoline-3-carboxamide]
EC50: 250 to 500 nM

SMILES: NCC[C@H](NC(=O)[C@@H]1Cc2ccccc2CN1C(=O)CCC(=O)c1ccccc1)C(=O)Nc1cc(Cl)c(Cl)cc1C(F)(F)F [Compound 14-2]
EC50: < 50 nM

SMILES: Cc1c(Cl)ccc(NC(=O)[C@H](CCN)NC(=O)[C@@H]2Cc3ccccc3CN2C(=O)CCC(=O)c2ccccc2)c1Cl [Compound 14-3]
EC50: < 50 nM

SMILES: NCC[C@H](NC(=O)[C@@H]1Cc2ccccc2CN1C(=O)CCC(=O)c1ccccc1)C(=O)Nc1cc(Cl)c(Cl)c(Cl)c1 [Compound 14-4]
EC50: < 50 nM

SMILES: NCC[C@H](NC(=O)[C@@H]1Cc2ccccc2CN1C(=O)CCC(=O)c1ccccc1)C(=O)Nc1c(Cl)cccc1Cl [Compound 14-7]
EC50: > 500 nM

SMILES: NCC[C@H](NC(=O)[C@@H]1Cc2ccccc2CN1C(=O)CCC(=O)c1ccccc1)C(=O)Nc1c(F)cccc1Cl [Compound 14-9]
EC50: 250 to 500 nM

SMILES: NCC[C@H](NC(=O)[C@@H]1Cc2ccccc2CN1C(=O)CCC(=O)c1ccccc1)C(=O)Nc1ccc(Cl)cc1C(F)(F)F [Compound 14-12]
EC50: 50 to 250 nM

SMILES: Cc1ccc(NC(=O)[C@H](CCN)NC(=O)[C@@H]2Cc3ccccc3CN2C(=O)CCC(=O)c2ccccc2)c(C(F)(F)F)c1 [Compound 14-13]
EC50: 250 to 500 nM

SMILES: NCC[C@H](NC(=O)[C@@H]1Cc2ccccc2CN1C(=O)CCC(=O)c1ccccc1)C(=O)Nc1cc(Cl)ccc1C(F)(F)F [Compound 14-14]
EC50: 50 to 250 nM

SMILES: Cc1ccc(C#N)cc1NC(=O)[C@H](CCN)NC(=O)[C@@H]1Cc2ccccc2CN1C(=O)CCC(=O)c1ccccc1 [Compound 14-20]
EC50: 250 to 500 nM

SMILES: [N-]=[N+]=NCC[C@H](NC(=O)[C@@H]1Cc2ccccc2CN1C(=O)CCC(=O)c1ccccc1)C(=O)Nc1ccc(Cl)c(Cl)c1F [Compound 14-22, (S)—N—((S)-4-azido-1-((3,4-dichloro-2-fluorophenyl)amino)-1-oxobutan-2-yl)-2-(4-oxo-4-phenylbutanoyl)-1,2,3,4-tetrahydroisoquinoline-3-carboxamide]
EC50: 250 to 500 nM

SMILES: Cc1cc(OC(F)(F)F)c(NC(=O)[C@H](CCN)NC(=O)[C@@H]2Cc3ccccc3CN2C(=O)CCC(=O)c2ccccc2)cc1Cl [Compound 14-24]
EC50: < 50 nM

SMILES: Cc1ccc(OC(F)(F)F)c(NC(=O)[C@H](CCN)NC(=O)[C@@H]2Cc3ccccc3CN2C(=O)CCC(=O)c2ccccc2)c1 [Compound 14-25]
EC50: < 50 nM
